Experimental data reported in US5434141A, “Medicament for the treatment of hyperlipidaemia and/or atherosclerosis” (Steigerwald Arzneimittelwerk GmbH, priority 1990, dated 1995).
“Also recorded” adds a separate entry of the source. Read-outs that look alike come from different tables or passages of the source.

What was measured:
[1] = Experiment 1: serum cholesterol and lipid concentration in hamsters fed a lipidaemia diet, 4 weeks; type: in vivo, male golden hamsters; details: for hypocholesterolaemic / lipid-lowering action, in words: serum
Protocol: (§1) 3 Groups each of 20 male golden hamsters were fed for 4 weeks with a lipidaemia diet (hamster maintenance diet and 2% cholesterol).
(§2) The dose taken was between 4 and 5 g/kg of body weight and day.
(§3) After 4 weeks the animals were sacrificed and the serum and hepatic lipid concentration was measured. The results of the analyses are compiled in Tables 1, 2 and 3.

[2] = Experiment 1: hepatic lipid concentration in hamsters fed a lipidaemia diet, 4 weeks; type: in vivo, male golden hamsters; details: four weeks
Protocol: as §1, §2, §3

[3] = Tolerability / toxic effects (general statement); details: in vivo
[4] = by contrast with pectin; cited from earlier work
[5] = in vivo; cited from earlier work
[6] = Protocol: (§4) 3 Groups each of 20 male golden hamsters were fed for 4 weeks with a lipidaemia diet (hamster maintenance diet and 2% cholesterol). The feed in the two treated groups was additionally supplemented with in each case 5% galacturonic acid or DEAE-polygalacturonic acid (DEAE=diethylaminoethyl).
(§5) 3 Groups each of 20 male golden hamsters were treated for 4 weeks like the animals described in 1. […] Group 1 was the lipidaemia control.

[7] = Experiment 2: hepatic lipid concentration in hamsters fed a lipidaemia diet, 4 weeks; type: in vivo, male golden hamsters; details: four weeks
Protocol: as §4, §5

[8] = mean, n = 20/group, 5% in feed, four weeks
[9] = mean, n = 20/group, 5% in feed, four weeks, * p ≤ 0.05
[10] = significant, p≤0.05, four weeks
[11] = mean, n = 20/group, 5% in feed, * p ≤ 0.05

O=C(O)[C@H]1O[C@H](O)[C@H](O)[C@@H](O)[C@H]1O [galacturonic acid, α-D-galacturonic acid]
Free cholesterol in serum, D = difference from the control group ([1]; 5% in feed, four weeks): -19% | HDL-cholesterol in serum, D = difference from the control group ([1]; 5% in feed, four weeks): -20% | LDL-cholesterol in serum, D = difference from the control group ([1]; 5% in feed, four weeks): -23% | Phospholipids in serum, D = difference from the control group ([1]; 5% in feed, four weeks): -17% | Total cholesterol in serum, D = difference from the control group ([1]; 5% in feed, four weeks): -20% | Total lipids in serum, D = difference from the control group ([1]; 5% in feed, four weeks): -18% | Triglycerides in serum, D = difference from the control group ([1]; 5% in feed, four weeks): +7% | VLDL + LDL-cholesterol in serum, D = difference from the control group ([1]; 5% in feed, four weeks): -20% | VLDL-cholesterol in serum, D = difference from the control group ([1]; 5% in feed, four weeks): -14% | Phospholipids concentration in serum [1, 8]: 322 mg/dL | Total lipids concentration in serum [1, 8]: 1060 mg/dL | Triglycerides concentration in serum [1, 8]: 216 mg/dL | Free cholesterol concentration in serum [1, 9]: 96 mg/dL | HDL-cholesterol concentration in serum [1, 9]: 118 mg/dL | LDL-cholesterol concentration in serum [1, 9]: 117 mg/dL | Total cholesterol concentration in serum [1, 9]: 271 mg/dL | VLDL + LDL-cholesterol concentration in serum [1, 9]: 153 mg/dL | VLDL-cholesterol concentration in serum [1, 9]: 36 mg/dL | hypocholesterolaemic / lipid-lowering action, in words [1]: significant decrease in the cholesterol and lipid concentrations; also recorded: has a hypocholesterolaemic action | hypocholesterolaemic / lipid-lowering action, in words ([1]; listed as α-D-galacturonic acid): shows a hypocholesterolaemic action in the serum | lowering of serum HDL-cholesterol ([1]; significant, four weeks): 20% | lowering of serum LDL-cholesterol ([1]; significant, four weeks): 23% | lowering of serum VLDL- plus LDL-cholesterol ([1]; significant, four weeks): 20% | lowering of serum free cholesterol ([1]; significant, four weeks): 19% | lowering of serum phospholipid concentration ([1]; significant, four weeks): 17% | lowering of serum total lipid concentration ([1]; significant, four weeks): 18% | lowering of serum concentration of total cholesterol [1, 10]: 20% | Hepatic cholesterol, D = difference from the control group ([2]; 5% in feed): -9% | Hepatic total lipids, D = difference from the control group ([2]; 5% in feed): -34% | Hepatic cholesterol concentration [2, 11]: 27 mg/g wet weight | Hepatic total lipids concentration [2, 11]: 111 mg/g wet weight | reduction of total lipid concentration in the liver ([2]; significant): 34% | tolerability [3]: as a rule well tolerated | solubility in water [4]: readily soluble in water | toxic effects [5]: No toxic effects are known

polygalacturonic acid
Free cholesterol in serum, D = difference from the control group ([6]; 5% in feed, four weeks): -32% | HDL-cholesterol in serum, D = difference from the control group ([6]; 5% in feed, four weeks): -15% | LDL-cholesterol in serum, D = difference from the control group ([6]; 5% in feed, four weeks): -18% | Phospholipids in serum, D = difference from the control group ([6]; 5% in feed, four weeks): -19% | Total cholesterol in serum, D = difference from the control group ([6]; 5% in feed, four weeks): -13% | Total lipids in serum, D = difference from the control group ([6]; 5% in feed, four weeks): -14% | VLDL + LDL-cholesterol in serum, D = difference from the control group ([6]; 5% in feed, four weeks): -8% | VLDL-cholesterol in serum, D = difference from the control group ([6]; 5% in feed, four weeks): -4% | Phospholipids concentration in serum [6, 8]: 385 mg/dL | Total lipids concentration in serum [6, 8]: 1338 mg/dL | Triglycerides concentration in serum [6, 8]: 269 mg/dL | Free cholesterol concentration in serum [6, 9]: 80 mg/dL | HDL-cholesterol concentration in serum [6, 9]: 149 mg/dL | LDL-cholesterol concentration in serum [6, 9]: 163 mg/dL | Total cholesterol concentration in serum [6, 9]: 361 mg/dL | VLDL + LDL-cholesterol concentration in serum [6, 9]: 212 mg/dL | VLDL-cholesterol concentration in serum [6, 9]: 48 mg/dL | lowering of serum phospholipid concentration ([6]; significant, four weeks): 19% | lowering of serum total lipid concentration ([6]; significant, four weeks): 14% | lowering of serum HDL-cholesterol [6, 10]: 15% | lowering of serum free cholesterol [6, 10]: 32% | lowering of serum total cholesterol [6, 10]: 13% | Hepatic cholesterol, D = difference from the control group ([7]; 5% in feed): -26% | Hepatic total lipids, D = difference from the control group ([7]; 5% in feed): -25% | Hepatic cholesterol concentration [7, 11]: 22.1 mg/g wet weight | Hepatic total lipids concentration [7, 11]: 67.4 mg/g wet weight | lowering of hepatic cholesterol concentration ([7]; significant): 26% | lowering of hepatic total lipid concentration ([7]; significant): 25%
